{
  "source": "patent US9801940B2",
  "about": "“Oral care compositions” (Colgate-Palmolive Company, priority 2010, dated 2017)",
  "data": [
    {"tested_on": "representative oral bacteria S. mutans, F. nucleatum, V. parvula, A. naslundii, P. gingivitis", "test": "Bactericidal properties in in vitro tests", "type": "cell-based", "source_text": "As referred to herein, the expressions “extract of magnolia” or “magnolia extract” denote an extract from dried cortex, or bark, of a plant from the Magnoliaceae family, such as Magnolia officinalis, (hereinafter “magnolia”), or a synthetic or semi-synthetic equivalent of such an extract or an active component thereof. […] In other embodiments, the oral composition comprises an extract of magnolia. […] It should be noted that any plant from the Magnoliaceae family is suitable for extracting the active ingredients used in the present embodiment.", "values": [
      {"smiles": "C=CCc1ccc(O)c(-c2ccc(O)c(CC=C)c2)c1", "note": "[honokiol]", "bactericidal properties against representative oral bacteria": "demonstrated bactericidal properties"},
      {"smiles": "CCCc1ccc(O)c(-c2cc(CCC)ccc2O)c1", "note": "[tetrahydromagnolol, 5,5′-dipropylbiphenyl-2,2′-diol]", "bactericidal properties against representative oral bacteria": "demonstrated bactericidal properties"},
      {"smiles": "C=CCc1ccc(O)c(-c2cc(CC=C)ccc2O)c1", "note": "[magnolol]", "bactericidal properties against representative oral bacteria": "demonstrated bactericidal properties"},
      {"smiles": "CCCc1ccc(O)c(-c2ccc(O)c(CCC)c2)c1", "note": "[tetrahydrohonokiol, 3′,5-dipropylbiphenyl-2,4′-diol]", "bactericidal properties against representative oral bacteria": "demonstrated bactericidal properties"}
    ]}
  ]
}
